# Results: US6403363B1, “Method of preservation of vaccines with polybiguanide” (priority 1997, dated 2002)
# Like-named read-outs stand apart in the source and are kept apart here.
# What was measured:
# [1] = Visible effect of preservative on allantoic fluid; assay type: physicochemical; settings: preservative 0.1%
# Excerpt: The preserved samples were also examined to determine the visible effect on allantoic fluid, and the results are shown in Table 4 below.
# seed virus grown in eggs = test system: seed virus grown in eggs; set-up: species or system influenza virus
smiles,measurement,setting,value
O=[N+]([O-])C(Br)(CO)CO [Nipaguard BNPD],Effect on allantoic fluid (visible),[1],No effect
"O=[N+]([O-])C(Br)(CO)CO [bronopol, 2-bromo-2-nitropropan-1,2-diol]",Infectivities (summary),seed virus grown in eggs; 0.1% preservative,Unsatisfactory
same,effect on egg infectivities,"seed virus grown in eggs; compared with Cosmocil CQ and thiomersal, 0.1% bronopol, 0.4% Biopure",pronounced negative effect
same,Log egg infective doses/ml,seed virus grown in eggs; virus seed + 0.1% preservative,<5.4 log egg infective doses/ml
"C[CH2][Hg][S]c1ccccc1C(=O)[O-].[Na+] [thiomersal, sodium ethylmercurithiosalicylate]",Log egg infective doses/ml,seed virus grown in eggs; virus seed + 0.01% preservative,8.2
